Results on ten substances are retold here after patent publication US9409961B2, “Cell penetrating peptides to target EIF4E” (Hoffmann-La Roche Inc., priority 2012, dated 2016).

The target in one data set is T1, human eIF4E (Homo sapiens, UniProt P06730).
T1 construct: made in house
The experiment in a line: biochemical assay of peptide binding to human eIF4E (displacement of biotin labeled 4G2 peptide). As for the experimental part: A biochemical assay was run to test peptide binding to human eIF4E.
Human eIF4E (aa 28-217, SEQ ID NO: 87) with a C-terminal His tag (HH-eIF4E, SEQ ID NO: 88) was expressed in E. coli in inclusion bodies. The protein was solubilized with 8 M urea and purified under denaturing conditions using nickel-charged HisTrap HP columns (GE Healthcare). The protein was refolded by diluting to approximately 0.25 mg/mL with 6 M urea, 20 mM Hepes pH 7.0, 500 mM NaCl, 1 mM DTT, 1 mM EDTA, and 0.5 M arginine.HCl, and then dialyzing overnight into the same buffer without the urea. The protein was further dialyzed into 20 mM Hepes pH 6.5, 50 mM NaCl, 1 mM EDTA, and 1 mM DTT, filtered, and then concentrated using Hitrap SP sepharose FF columns (GE Healthcare). The protein was dialyzed into 20 mM Hepes pH 7.0, 500 mM NaCl, 5 mM DTT, and 10% glycerol and stored at −80° C. until use.
Test peptides (1.6 mM stock in DMSO) were diluted 3 fold in series in DMSO and solutions were diluted 4 fold in Assay Buffer (50 mM NaPi, pH 6.5, 50 mM KCl, 1 mM DTT, 0.004% NP40 and 0.5 mg/ml gammaglobulin). Six microliters per well of diluted peptide solutions and 12 microliters per well of 187.5 nM HH-eIF4E in Assay Buffer were added to 384-well polypropylene microplates (Matrix, Thermal Scientific). Twelve microliters per well of 187.5 nM biotin labeled 4G2 peptide (Ac-[…]Aha-Bio)-NH2 (SEQ ID NO: 91) 1:2 TFA) in Assay Buffer was added. The samples were incubated at room temperature for 20 minutes.
Six microliters per well of 4.8 nM Eu-streptavidin (Columbia Biosciences) and 48 nM Allophycocyanin-anti His antibody (Columbia Biosciences) in Assay Buffer (without DTT) were then added and the samples were incubated at room temperature for 30 min. Assay signals were monitored by reading emission fluorescence at 665 nm on an Envision Reader (PerkinElmer Life and Analytical Sciences). IC50 values were calculated using Condoseo software (Genedata AG, Basel, Switzerland).

A short description of a further data set: stability in rat plasma. It is filed as in vitro ADME. The following applies: Hannover Wistar, pH 7.4, Conc. 10 uM, 37° C. The procedure:
(§1) The following study was conducted to assess the stability of the compound of Examples 2-4 (SEQ ID NOS: 9, 10 and 11) in Hannover Wistar rat and human plasma after 4 and 24 hours. Approximately, 2.0 mg of the compound of Examples 2-4 (SEQ ID NOS 9, 10 and 11) was weighed out and placed in a 4 mL amber vial. To this was added 1.0 mL DMSO. The vial was carefully vortexed to produce a solution of approximately 600 μM.
(§2) Hannover Wistar rat plasma and human plasma (anti-coagulant sodium EDTA) were pre-warmed to 37° C. for 30 minutes in a water bath. The pH of both plasmas was adjusted to pH7.4. 1.5 mL microcentrifuge vials were used.
(§3) The stock solution of the compound of Examples 2-4 was diluted into rat or human plasma to a final concentration of 10 μM. The two vials were gently vortexed ensuring proper mixing.
(§4) Six new vials were labeled as follows: rat T0, rat T4, rat T24, human T0, human T4, human T24. To each of these vials, 50 μL of treated plasma was added. The T4 and T24 vials were capped and placed in a 37° C. incubator for 4 and 24 hours, respectively.
(§5) To each of the two T0 vials, 50 μL of Sorensen buffer and 200 μL 1.0% acetic acid in acetonitrile were added. The T0 vials were then capped, vortexed and centrifuged at 10000×g for 10 minutes. Upon completion of centrifugation, 100 μL of the supernatant of each vial was added to a separate well in a 96-well injection block. 200 µL of 0.1% acetic acid in Milli-Q® water (Millipore) was then added to each well.
(§6) The above procedure as written with respect to the T0 vials was repeated for the two T4 vials at the 4 hour time point and the T24 vials at the 24 hour time point. With each time point a fresh T0 sample was prepared, as described above, to ensure there was no sample degradation.
(§7) All samples were analyzed by LC/MS/MS. The resulting chromatographs were processed to obtain peaks areas for each sample. The percent of compound remaining at each time point as compared with the amount present in the comparison T0 sample was calculated.

Data set [1] in a line: stability in human plasma. The data set is classed as in vitro ADME. The conditions noted are these: pH 7.4, Conc. 10 uM, 37° C. As for the experimental part:
as §1, §2, §3, §4, §5, §6, §7

The subject of data set [2] is downstream target gene expression. Kind of data set: downstream target gene expression and apoptosis (FIG. 2). The data set is classed as cell-based.
The mark [3] stands for this setting: Binding affinities expressed as IC50, HH-eIF4E, biotin labeled 4G2 peptide.
[4] abbreviates: IC50 (μM), Table 2a, cell penetrating peptides with the Y----LL-F and YWLLALFVY motifs.
Setting [5] is: IC50 (μM), Table 2, cell-penetrating peptides with the Y----LL-F motif.

A word on the IC50: it is the concentration that inhibits the measured activity by half.

T1 sequence (P06730 with tags, fused parts or gaps): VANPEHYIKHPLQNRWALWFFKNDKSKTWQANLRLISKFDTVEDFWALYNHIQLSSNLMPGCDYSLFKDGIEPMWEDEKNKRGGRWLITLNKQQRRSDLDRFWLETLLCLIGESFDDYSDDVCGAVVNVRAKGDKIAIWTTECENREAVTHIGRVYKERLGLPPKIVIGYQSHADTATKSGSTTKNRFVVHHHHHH

On human eIF4E (setting [3]), “Ac-MAKLKYWLLALFVYMWTDLLLFKKRPKP-NH2 [SEQ ID NO: 9]” showed an IC50 of 4.4 µM. In “stability in rat plasma”, the amount remaining at 4 h, 10 µM turned out to be 91.7% and the fraction remaining at 24 h, 10 µM was 18.2%. Further, in data set [1], the share remaining at 4 h, 10 µM was found to be 94.9% and the fraction remaining at 24 h, 10 µM is 76.2%. In data set [2], the apoptosis entry is given as “induce apoptosis” and the “downstream target gene expression” value is “inhibit downstream target gene expression”.
In the case of “Ac-MANLAYWLLALFVYMWTDLRLFKKRPKP-NH2 [SEQ ID NO: 10]”, the IC50 at human eIF4E (setting [3]) is 6.61 µM. The same substance had an IC50 at human eIF4E (setting [4]) of 1.7 µM. In “stability in rat plasma”, the fraction remaining at 4 h, 10 µM was found to be 102% and the share remaining at 24 h, 10 µM came to 23.7%. Also, in data set [1], the amount remaining at 4 h, 10 µM stood at 99.1% and the fraction remaining at 24 h, 10 µM stood at 45.2%. In data set [2], the apoptosis entry is on record as “induce apoptosis” and the “downstream target gene expression” value is “inhibit downstream target gene expression”.
Regarding “Ac-MVKYKIASLLLFLFVAMWSDVALAKKRPKP-NH2 [SEQ ID NO: 17]”, the half-inhibitory concentration (IC50) on human eIF4E (setting [5]) amounted to 12.5 µM.
On the same count and under the same terms, the value for “Ac-MVKYKIASLLLFLFVAMWSDVKLKKKRPKP-NH2 [SEQ ID NO: 18]” was 6.71 µM; that for “Ac-MVKYKIGSLLLFLFVAMWSDVGLCKKRPKP-NH2 [SEQ ID NO: 12]” was 4.13 µM; that for “Ac-MYKSKILLWFLVLFVAMWSDVALAKKRPKP-NH2 [SEQ ID NO: 19]” was 7.21 µM.
Still for that read-out and setting: the value for “Ac-MYKSKILLWFLVLFVAMWSDVGLCKKRPKP-NH2 [SEQ ID NO: 14]” was 3.62 µM.
On to “Ac-NLAYWLLALFVYMWTDLRLFKKRPKP-NH2 [SEQ ID NO: 35]”, for which, on human eIF4E (setting [4]), the IC50 came to 5.04 µM. That is a single-digit micromolar value.
“Ac-WLLALFVYMWTDLRLFKKRPKP-NH2 [SEQ ID NO: 50]” returned a 50% inhibitory concentration (IC50) at human eIF4E (IC50 (μM), Table 3, cell-penetrating peptides without the Y----LL-F motif) of 2.36 µM. In other words, the single-digit micromolar range.
At human eIF4E (setting [4]), “Ac-YWLLALFVYMWTDLRLFKKRPKP-NH2 [SEQ ID NO: 37]” had an IC50 of 2.9 µM.
